molecular target: T1, human 11β-HSD1 (Homo sapiens, UniProt P28845); assay: Enzymatic 11beta-HSD1 test (SPA-based detection); type: biochemical; conditions: human 11β-HSD1 microsome fraction, [1,2-3H]-cortisone substrate, NADPH, 37° C. 1 hour, read-out: IC50 (nM), Biological activity in nanomolar
T1 construct: host or cells: microsome fraction
Description: Enzymatic 11beta-HSD1 Test:
First of all, 20 μl of the human 11β-HSD1 microsome fraction (0.2 μg of protein), prepared in 50 mM HEPES, 0.1% BSA (w/v), were applied to a plate with 384 wells. The test compounds (0.09 μl) were applied to the assay plate in 100% DMSO. The reaction was started by addition of 20 μl of [1,2-^3H]-cortisone (0.1 μCi/[…]) in assay buffer comprising 25 mM HEPES, 100 mM KCl, 5 mM NaCl, 2 mM MgCl2 and 0.25 mM NADPH. The plate was agitated at 37° C. for 1 hour. At the same time, a stop solution comprising 20 mg/ml SPA-PVT beads, 1.6 mg/ml monoclonal cortisol antibody and 0.01 mM SSR110887 (inhibitor from the Biovitrium patent) in 50 mM HEPES, 1 M NaCl and 1 M KCl was stirred at room temperature. To stop the reaction, 25 μl of the stop solution were added to each well. The plate was agitated gently at room temperature for 1 further hour and then centrifuged at 500 gav for 1 min, in order that the SPA beads could settle out. […] The comparative compound was glycyrrhetinic acid.
Protein and radioactive substrate were dispensed with a Biomek FX unit (Beckman Coulter) for handling liquids. The test compounds were added with a Cybi-Well equipped with a 90 n1 pin tool (CyBio).
Lit.: Solly S, Mundt S S, Zokian H J, Juy-Fang Ding G, Hermanowski-Vosatka A, Strulovici B and Zheng W. High-throughput screening of 11β-Hydroxysteroid dehydrogenase type 1 in scintillation proximity format.

T1 sequence (P28845 whole entry): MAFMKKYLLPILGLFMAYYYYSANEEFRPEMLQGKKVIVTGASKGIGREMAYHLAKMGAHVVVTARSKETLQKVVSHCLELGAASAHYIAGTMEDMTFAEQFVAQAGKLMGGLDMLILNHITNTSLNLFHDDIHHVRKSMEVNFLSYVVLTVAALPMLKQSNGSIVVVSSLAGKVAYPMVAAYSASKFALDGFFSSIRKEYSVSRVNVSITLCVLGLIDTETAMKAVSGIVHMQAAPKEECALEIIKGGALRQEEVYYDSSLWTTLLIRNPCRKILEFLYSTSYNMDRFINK

Row | IC50 | Structure (SMILES)
1 | 37 nM | CC1(C)OC(N[C@@H](CCO)c2ccccc2)=NS(=O)(=O)C12CC2 [Example 5, (S)-3-(8,8-Dimethyl-4,4-dioxo-7-oxa-4lambda6-thia-5-aza-spiro[2.5]oct-5-en-6-ylamino)-3-phenyl-propan-1-ol]
2 | 10 nM | CC1(C)OC(N[C@@H](CS(N)(=O)=O)c2ccc(F)cc2)=NS(=O)(=O)C1(C)C (single isomer, unassigned) [Example 14]
3 | 4 nM | CC1(C)OC(NC23CCC(CC2)CC3)=NS(=O)(=O)C1(C)C [Example 15, Bicyclo[2.2.2]oct-1-yl-(5,5,6,6-tetramethyl-4,4-dioxo-5,6-dihydro-4H-4lambda6-[1,4,3]oxathiazin-2-yl)-amine]
4 | 19 nM | CC1(C(F)(F)F)OC(NC2CCCCC2)=NS(=O)(=O)C12CC2 (stereo not shown) [Example 13, Cyclohexyl-(8-methyl-4,4-dioxo-8-trifluoromethyl-7-oxa-4lambda6-thia-5-aza-spiro[2.5]oct-5-en-6-yl)-amine]
5 | 462 nM | COCC1(C)OC(NC2CCCCC2)=NS(=O)(=O)C12CC2 (stereo not shown) [Example 4, Cyclohexyl-(8-methoxymethyl-8-methyl-4,4-dioxo-7-oxa-4lambda6-thia-5-aza-spiro[2.5]oct-5-en-6-yl)-amine]
6 | 4 nM | CC1(C)OC(NC23CCC(F)(CC2)CC3)=NS(=O)(=O)C1(C)C [Example 9, (4-Fluoro-bicyclo[2.2.2]oct-1-yl)-(5,5,6,6-tetramethyl-4,4-dioxo-5,6-dihydro-4H-4lambda6-[1,4,3]oxathiazin-2-yl)-amine]
7 | 289 nM | CC1(C)OC(N[C@@H]2CCC[C@@H](O)C2)=NS(=O)(=O)C1(C)C [Example 25, (1R,3R)-3-(5,5,6,6-Tetramethyl-4,4-dioxo-5,6-dihydro-4H-4lambda6-[1,4,3]oxathiazin-2-ylamino)-cyclohexanol]
8 | 5 nM | C[C@H](NC1=NS(=O)(=O)C(C)(C)C(C)(C)O1)c1ccccc1F [Example 21, [(S)-1-(2-Fluoro-phenyl)-ethyl]-(5,5,6,6-tetramethyl-4,4-dioxo-5,6-dihydro-4H-4lambda6-[1,4,3]oxathiazin-2-yl)-amine]
9 | 586 nM | CC(C)(O)C[C@H](NC1=NS(=O)(=O)C(C)(C)C(C)(C)O1)c1cccnc1 [Example 16, (S)-2-Methyl-4-pyridin-3-yl-4-(5,5,6,6-tetramethyl-4,4-dioxo-5,6-dihydro-4H-4lambda6-[1,4,3]oxathiazin-2-ylamino)-butan-2-ol]
10 | 73 nM | CC1(COCc2ccccc2)OC(NC2CCCCC2)=NS(=O)(=O)C12CC2 (stereo not shown) [Example 6, (8-Benzyloxymethyl-8-methyl-4,4-dioxo-7-oxa-4lambda6-thia-5-aza-spiro[2.5]oct-5-en-6-yl)-cyclohexyl-amine]
11 | 560 nM | CC1(C)OC(N[C@H]2CCC[C@H](O)C2)=NS(=O)(=O)C1(C)C [Example 18, (1S,3S)-3-(5,5,6,6-Tetramethyl-4,4-dioxo-5,6-dihydro-4H-4lambda6-[1,4,3]oxathiazin-2-ylamino)-cyclohexanol]
12 | 22 nM | CC1(C)OC(NC23CCC(F)(CC2)CC3)=NS(=O)(=O)C12CC2 [Example 8, (8,8-Dimethyl-4,4-dioxo-7-oxa-4lambda6-thia-5-aza-spiro[2.5]oct-5-en-6-yl)-(4-fluoro-bicyclo[2.2.2]oct-1-yl)-amine]
13 | 786 nM | CC1(CO)OC(NC2CCCCC2)=NS(=O)(=O)C12CC2 (stereo not shown) [Example 7, (6-Cyclohexylamino-8-methyl-4,4-dioxo-7-oxa-4lambda6-thia-5-aza-spiro[2.5]oct-5-en-8-yl)-methanol]
